The source of these data is US20250263390A1, “NOVEL SUBSTITUTED 6,7-DIHYDRO-5H-BENZO[7]ANNULENE COMPOUNDS AND THEIR DERIVATIVES, PROCESSES FOR THEIR PREPARATION AND THERAPEUTIC USES THEREOF” (SANOFI, priority 2022, published 2025).

For the test, the target named is T1, ERα (Homo sapiens, UniProt P03372).
T1 construct: host or cells: MCF7
T1 sequence (P03372 1-595): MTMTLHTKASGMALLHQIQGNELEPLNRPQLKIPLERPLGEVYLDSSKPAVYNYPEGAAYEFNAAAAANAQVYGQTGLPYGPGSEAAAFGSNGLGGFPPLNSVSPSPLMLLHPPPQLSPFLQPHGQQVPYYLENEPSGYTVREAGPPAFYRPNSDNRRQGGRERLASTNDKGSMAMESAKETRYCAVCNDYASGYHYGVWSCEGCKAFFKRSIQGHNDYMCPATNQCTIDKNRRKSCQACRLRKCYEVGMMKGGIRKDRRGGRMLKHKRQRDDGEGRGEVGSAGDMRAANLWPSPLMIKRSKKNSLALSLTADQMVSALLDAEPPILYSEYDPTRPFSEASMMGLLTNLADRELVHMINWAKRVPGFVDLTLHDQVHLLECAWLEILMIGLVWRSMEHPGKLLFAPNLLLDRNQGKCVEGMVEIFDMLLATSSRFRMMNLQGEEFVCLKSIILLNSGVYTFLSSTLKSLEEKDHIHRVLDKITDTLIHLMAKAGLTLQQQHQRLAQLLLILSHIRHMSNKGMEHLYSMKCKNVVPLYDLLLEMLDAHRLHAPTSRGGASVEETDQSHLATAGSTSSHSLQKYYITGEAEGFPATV
The test is described as follows: Estrogen receptor degradation activity: breast cancer cell ERα in cell western assay. Type of test: cell-based. The note with it: MCF7 cells, 4 hours, relative to fulvestrant 0.1 μM positive control. Here is the method:
Test: Estrogen Receptor Degradation Activity Said test involves measuring the in vitro degradation activity of the compounds of the Table 1a. The measurements of the degradation activities were made using a breast cancer cell ERα in cell western assay as described hereunder. MCF7 cells (ATCC) were seeded in 384 wells microplate (collagen coated) at a concentration of 10000 cells/30 μL per well in red phenol free MEM alpha medium (invitrogen) containing 5% charcoal dextran striped FBS. The following day, 9 points serial 1:5 dilution of each compound was added to the cells in 2.5p L at final concentrations ranging from 0.3-0.0000018 μM (in table 2), or 0.1 μM for fulvestrant (using as positive control). At 4 hours post compound addition the cells were fixed by adding 25 μL of formalin (final concentration 5% formalin containing 0.1% triton) for 10 minutes at room temperature and then washed twice with PBS. Then, 50 μL of LI-COR blocking buffer containing 0.1% Triton was added to plate for 30 minutes at room temperature. LI-COR blocking buffer was removed and cells were incubated overnight at cold room with 50 μL anti-ER rabbit monoclonal antibody (Thermo scientific MA1-39540) diluted at 1:1000 in LI-COR blocking buffer containing 0.1% tween-20. Wells which were treated with blocking buffer but no antibody were used as background control. Wells were washed twice with PBS (0.1% tween-20) and incubated at 37° C. for 60 minutes in LI-COR (0.1% tween-20) containing goat anti-rabbit antibody Alexa 488 (1:1000) and Syto-64 a DNA dye (2 μM final concentration). Cells were then washed 3 times in PBS and scanned in ACUMEN explorer (TTP-Labtech). Integrated intensities in the green fluorescence and red fluorescence were measured to determine the levels of ERα and DNA respectively. The degradation activity with respect to estrogen receptors in this test is given by the concentration which degrades 50% of the estrogen receptor (or IC50) in nM. The % of ERα levels decrease were determined as follows: % inhibition=100*(1−(sample−fulvestrant: DMSO−fulvestrant)).
As for `Cl.O=C(O)c1ccc2c(c1)CCCC(c1cccc(OC(F)(F)F)c1)=C2c1ccc(CC2CN(CCCF)C2)cc1` [Compound 22, 9-(4-((1-(3-fluoropropyl)azetidin-3-yl)methyl)phenyl)-8-(3-(trifluoromethoxy)phenyl)-6,7-dihydro-5H-benzo[7]annulene-3-carboxylic acid, hydrochloride], the “% Degradation At 0.3 μM” value is 92%.
In the case of `Cc1c(C2=C(c3ccc(CC4CN(CCCF)C4)cc3)c3ccc(C(=O)O)cc3CCC2)ccc(C(F)(F)F)c1F.Cl` [Compound 64, 8-(3-fluoro-2-methyl-4-(trifluoromethyl)phenyl)-9-(4-((1-(3-fluoropropyl)azetidin-3-yl)methyl)phenyl)-6,7-dihydro-5H-benzo[7]annulene-3-carboxylic acid, hydrochloride] it was 100%.
As for `Cc1cccc(F)c1C1=C(c2ccc(CC3CN(CCCF)C3)cc2)c2ccc(C(=O)O)cc2CCC1.Cl` [Compound 41, 8-(2-fluoro-6-methylphenyl)-9-(4-((1-(3-fluoropropyl)azetidin-3-yl)methyl)phenyl)-6,7-dihydro-5H-benzo[7]annulene-3-carboxylic acid, hydrochloride], the figure is 91%; as for `O=C(O)c1ccc2c(c1)CCCC(c1ccccc1OC(F)(F)F)=C2c1ccc(CC2CN(CCCF)C2)cc1` [Compound 30, 9-(4-((1-(3-fluoropropyl)azetidin-3-yl)methyl)phenyl)-8-(2-(trifluoromethoxy)phenyl)-6,7-dihydro-5H-benzo[7]annulene-3-carboxylic acid], 92%; as for `O=C(O)c1ccc2c(c1)CCCC(c1cccc(Cl)c1OC(F)(F)F)=C2c1ccc(CC2CN(CCCF)C2)cc1` [Compound 5, 8-(3-chloro-2-(trifluoromethoxy)phenyl)-9-(4-((1-(3-fluoropropyl)azetidin-3-yl)methyl)phenyl)-6,7-dihydro-5H-benzo[7]annulene-3-carboxylic acid], 87%.
Take `Cc1ccc(C2=C(c3ccc(CC4CN(CCCF)C4)cc3)c3ccc(C(=O)O)cc3CCC2)cc1O` [Compound 56, 9-(4-((1-(3-fluoropropyl)azetidin-3-yl)methyl)phenyl)-8-(3-hydroxy-4-methylphenyl)-6,7-dihydro-5H-benzo[7]annulene-3-carboxylic acid]: the “% Degradation At 0.3 μM” value was found to be 95%.
With `COc1cc(C2=C(c3ccc(CC4CN(CCCF)C4)cc3)c3ccc(C(=O)O)cc3CCC2)ccc1C(F)(F)F.Cl` [Compound 19, 9-(4-((1-(3-fluoropropyl)azetidin-3-yl)methyl)phenyl)-8-(3-methoxy-4-(trifluoromethyl)phenyl)-6,7-dihydro-5H-benzo[7]annulene-3-carboxylic acid, hydrochloride], the “% Degradation At 0.3 μM” value amounted to 93%.
In the case of `COc1cc(C(F)(F)F)ccc1C1=C(c2ccc(CC3CN(CCCF)C3)cc2)c2ccc(C(=O)O)cc2CCC1.Cl` [Compound 16, 9-(4-((1-(3-fluoropropyl)azetidin-3-yl)methyl)phenyl)-8-(2-methoxy-4-(trifluoromethyl)phenyl)-6,7-dihydro-5H-benzo[7]annulene-3-carboxylic acid, hydrochloride] it was 92%; in that of `COc1ccc(C2=C(c3ccc(CC4CN(CCCF)C4)cc3)c3ccc(C(=O)O)cc3CCC2)c(C(F)(F)F)c1.Cl` [Compound 25, 9-(4-((1-(3-fluoropropyl)azetidin-3-yl)methyl)phenyl)-8-(4-methoxy-2-(trifluoromethyl)phenyl)-6,7-dihydro-5H-benzo[7]annulene-3-carboxylic acid, hydrochloride], 92%.
Regarding `O=C(O)c1ccc2c(c1)CCCC(c1c(F)cccc1OC(F)(F)F)=C2c1ccc(CC2CN(CCCF)C2)cc1` [Compound 43, 8-(2-fluoro-6-(trifluoromethoxy)phenyl)-9-(4-((1-(3-fluoropropyl)azetidin-3-yl)methyl)phenyl)-6,7-dihydro-5H-benzo[7]annulene-3-carboxylic acid], the “% Degradation At 0.3 μM” value was 92%.
As for `Cc1cc(C2=C(c3ccc(CC4CN(CCCF)C4)cc3)c3ccc(C(=O)O)cc3CCC2)ccc1C(F)F.Cl` [Compound 42, 8-(4-(difluoromethyl)-3-methylphenyl)-9-(4-((1-(3-fluoropropyl)azetidin-3-yl)methyl)phenyl)-6,7-dihydro-5H-benzo[7]annulene-3-carboxylic acid, hydrochloride], the figure is 91%; as for `COc1cccc(C2=C(c3ccc(CC4CN(CCCF)C4)cc3)c3ccc(C(=O)O)cc3CCC2)c1C(F)(F)F` [Compound 11, 9-(4-((1-(3-fluoropropyl)azetidin-3-yl)methyl)phenyl)-8-(3-methoxy-2-(trifluoromethyl)phenyl)-6,7-dihydro-5H-benzo[7]annulene-3-carboxylic acid], 86%; as for `CC1(C)CCC(C2=C(c3ncc(CC4CN(CCCF)C4)cc3F)c3ccc(C(=O)O)cc3CCC2)CC1` [Compound 10, 8-(4,4-dimethylcyclohexyl)-9-(3-fluoro-5-((1-(3-fluoropropyl)azetidin-3-yl)methyl)pyridin-2-yl)-6,7-dihydro-5H-benzo[7]annulene-3-carboxylic acid], 83%.
As for `O=C(O)c1ccc2c(c1)CCCC(c1cccc3c1CCCC3)=C2c1ccc(CC2CN(CCCF)C2)cc1` [Compound 2, 9-(4-((1-(3-fluoropropyl)azetidin-3-yl)methyl)phenyl)-8-(5,6,7,8-tetrahydronaphthalen-1-yl)-6,7-dihydro-5H-benzo[7]annulene-3-carboxylic acid], the figure is 86%.
As for `COc1cccc(C(F)(F)F)c1C1=C(c2ccc(CC3CN(CCCF)C3)cc2)c2ccc(C(=O)O)cc2CCC1` [Compound 63, 9-(4-((1-(3-fluoropropyl)azetidin-3-yl)methyl)phenyl)-8-(2-methoxy-6-(trifluoromethyl)phenyl)-6,7-dihydro-5H-benzo[7]annulene-3-carboxylic acid], the figure is 90%; as for `COc1cccc(Cl)c1C1=C(c2ccc(CC3CN(CCCF)C3)cc2)c2ccc(C(=O)O)cc2CCC1` [Compound 44, 8-(2-chloro-6-methoxyphenyl)-9-(4-((1-(3-fluoropropyl)azetidin-3-yl)methyl)phenyl)-6,7-dihydro-5H-benzo[7]annulene-3-carboxylic acid], 92%; as for `Cc1cccc(C(F)F)c1C1=C(c2ccc(CC3CN(CCCF)C3)cc2)c2ccc(C(=O)O)cc2CCC1` [Compound 66, 8-(2-(difluoromethyl)-6-methylphenyl)-9-(4-((1-(3-fluoropropyl)azetidin-3-yl)methyl)phenyl)-6,7-dihydro-5H-benzo[7]annulene-3-carboxylic acid], 90%.
As for `O=C(O)c1ccc2c(c1)CCCC(C1CCC(CO)C1)=C2c1ccc(CC2CN(CCCF)C2)cc1` (stereo not drawn) [Compound 3, 9-(4-((1-(3-fluoropropyl)azetidin-3-yl)methyl)phenyl)-8-(3-(hydroxymethyl)cyclopentyl)-6,7-dihydro-5H-benzo[7]annulene-3-carboxylic acid], the “% Degradation At 0.3 μM” value turned out to be 77%.
